Results from the CheMixHub ionic liquid set.

Assay: xn = mol fraction of the nth substance listed

CCCCCCCCCCCCCC[n+]1ccccc1.O=C([O-])C(O)c1ccccc1 + NCC(=O)O + O
electrical conductivity [S/m], 101 kPa
Settings | 293.15 K | 298.15 K | 303.15 K | 308.15 K | 313.15 K
x1 = 5.26e-06, x2 = 0.001799 | 0.00213 | 0.0024 | 0.00272 | 0.00305 | 0.0034
x1 = 6.85e-06, x2 = 0 | 0.00248 | 0.00278 | 0.00309 | 0.0034 | 0.0037
x1 = 8.31e-06, x2 = 0.0009002 | 0.00273 | 0.00309 | 0.00343 | 0.00385 | 0.0042
x1 = 1.142e-05, x2 = 0.001799 | 0.00389 | 0.00438 | 0.00491 | 0.0055 | 0.006
x1 = 1.319e-05, x2 = 0.0009002 | 0.00415 | 0.0047 | 0.00527 | 0.0058 | 0.0064
x1 = 1.424e-05, x2 = 0 | 0.00472 | 0.00529 | 0.00587 | 0.0065 | 0.0071
x1 = 1.685e-05, x2 = 0.001799 | 0.0054 | 0.0061 | 0.0069 | 0.0076 | 0.0084
x1 = 1.735e-05, x2 = 0.0009002 | 0.00534 | 0.00605 | 0.00678 | 0.0075 | 0.0082
x1 = 2.12e-05, x2 = 0.001799 | 0.0066 | 0.0075 | 0.0084 | 0.0093 | 0.0102
x1 = 2.126e-05, x2 = 0 | 0.00671 | 0.0076 | 0.0084 | 0.0093 | 0.0101
x1 = 2.367e-05, x2 = 0.0009002 | 0.00703 | 0.008 | 0.0089 | 0.0099 | 0.0108
x1 = 2.591e-05, x2 = 0.001799 | 0.00789 | 0.009 | 0.01 | 0.0111 | 0.0122
x1 = 2.811e-05, x2 = 0 | 0.0086 | 0.0097 | 0.0108 | 0.0122 | 0.0131
x1 = 2.982e-05, x2 = 0.0009002 | 0.0088 | 0.0098 | 0.011 | 0.0122 | 0.0134
x1 = 3.081e-05, x2 = 0.001799 | 0.0092 | 0.0104 | 0.0117 | 0.013 | 0.0143
x1 = 3.46e-05, x2 = 0 | 0.0103 | 0.0116 | 0.0129 | 0.0145 | 0.0157
x1 = 3.668e-05, x2 = 0.0009002 | 0.0104 | 0.0118 | 0.0132 | 0.0146 | 0.0161
x1 = 3.679e-05, x2 = 0.001799 | 0.0106 | 0.012 | 0.0134 | 0.015 | 0.0166
x1 = 4.108e-05, x2 = 0 | 0.0117 | 0.0131 | 0.0146 | 0.0161 | 0.0179
x1 = 4.337e-05, x2 = 0.0009001 | 0.0117 | 0.0131 | 0.0148 | 0.0165 | 0.0183
x1 = 4.367e-05, x2 = 0.001799 | 0.0119 | 0.0134 | 0.015 | 0.0168 | 0.0186
x1 = 4.811e-05, x2 = 0 | 0.0129 | 0.0144 | 0.0161 | 0.0179 | 0.0198
x1 = 4.951e-05, x2 = 0.0009001 | 0.0126 | 0.0143 | 0.0159 | 0.0178 | 0.0198
x1 = 5.11e-05, x2 = 0.001799 | 0.0131 | 0.0148 | 0.0166 | 0.0186 | 0.0206
x1 = 5.388e-05, x2 = 0 | 0.0137 | 0.0154 | 0.0172 | 0.0191 | 0.0211
x1 = 5.602e-05, x2 = 0.0009001 | 0.0135 | 0.0153 | 0.0171 | 0.0191 | 0.0212
x1 = 5.726e-05, x2 = 0.001799 | 0.014 | 0.0158 | 0.0176 | 0.0198 | 0.0219
x1 = 5.982e-05, x2 = 0 | 0.0145 | 0.0163 | 0.0182 | 0.0202 | 0.0224
x1 = 6.216e-05, x2 = 0.0009001 | 0.0144 | 0.0162 | 0.0181 | 0.0202 | 0.0224
x1 = 6.361e-05, x2 = 0.001799 | 0.0149 | 0.0167 | 0.0187 | 0.0209 | 0.0232
x1 = 6.559e-05, x2 = 0 | 0.0153 | 0.0172 | 0.0192 | 0.0213 | 0.0236
x1 = 6.885e-05, x2 = 0.0009001 | 0.0154 | 0.0172 | 0.0192 | 0.0214 | 0.0239
x1 = 6.959e-05, x2 = 0.001799 | 0.0156 | 0.0176 | 0.0197 | 0.0221 | 0.0245
x1 = 7.081e-05, x2 = 0 | 0.016 | 0.018 | 0.02 | 0.0223 | 0.0246
x1 = 7.463e-05, x2 = 0.0009001 | 0.0161 | 0.0181 | 0.0202 | 0.0225 | 0.0251
x1 = 7.593e-05, x2 = 0.001799 | 0.0165 | 0.0185 | 0.0207 | 0.0233 | 0.0258
x1 = 7.604e-05, x2 = 0 | 0.0167 | 0.0187 | 0.0209 | 0.0232 | 0.0258
x1 = 8.023e-05, x2 = 0.0009001 | 0.0168 | 0.0189 | 0.0211 | 0.0237 | 0.0263
x1 = 8.072e-05, x2 = 0 | 0.0173 | 0.0194 | 0.0217 | 0.0241 | 0.0266

CC(=O)[O-].CC[NH2+]CC + O
Settings | electrical conductivity [S/m] | viscosity [mPa·s]
283.15 K, 100.9 kPa, x1 = 0.168 | – | 27.4
283.15 K, 100.9 kPa, x1 = 0.24 | – | 55.1
283.15 K, 100.9 kPa, x1 = 0.351 | – | 92.3
288.15 K, 100.9 kPa, x1 = 0.549 | – | 105
295.65 K, 100.9 kPa, x1 = 0.168 | – | 14.67
298.15 K, 101 kPa, x1 = 0.0174 | 2.06 | –
298.15 K, 101 kPa, x1 = 0.0967 | 2.21 | –
298.15 K, 101 kPa, x1 = 0.199 | – | 14.82
298.15 K, 101 kPa, x1 = 0.1997 | 1.52 | –
298.15 K, 101 kPa, x1 = 0.6989 | 0.361 | –
298.15 K, 101 kPa, x1 = 0.877 | – | 57.2
300.65 K, 100.9 kPa, x1 = 0.168 | – | 11.78
303.15 K, 100.9 kPa, x1 = 0.168 | 2.24 | 10.62
303.15 K, 100.9 kPa, x1 = 0.351 | – | 30.6
305.65 K, 100.9 kPa, x1 = 0.24 | – | 17.47
310.65 K, 100.9 kPa, x1 = 0.24 | – | 14.12
310.65 K, 100.9 kPa, x1 = 0.549 | – | 32.6
313.15 K, 100.9 kPa, x1 = 0.549 | – | 29.2
315.65 K, 100.9 kPa, x1 = 0.119 | – | 4.25
315.65 K, 100.9 kPa, x1 = 0.168 | – | 6.65
315.65 K, 100.9 kPa, x1 = 0.714 | – | 30.1
318.15 K, 100.9 kPa, x1 = 0.007 | 2.25 | –
318.15 K, 100.9 kPa, x1 = 0.353 | 1.34 | –
328.15 K, 100.9 kPa, x1 = 0.015 | – | 0.728
328.15 K, 100.9 kPa, x1 = 0.549 | – | 16.18
330.65 K, 100.9 kPa, x1 = 0.015 | – | 0.692
330.65 K, 100.9 kPa, x1 = 0.055 | – | 1.339
330.65 K, 100.9 kPa, x1 = 0.119 | – | 2.78
330.65 K, 100.9 kPa, x1 = 0.168 | – | 4.17
333.15 K, 100.9 kPa, x1 = 0.007 | 2.64 | –
333.15 K, 100.9 kPa, x1 = 0.119 | – | 2.61
333.15 K, 100.9 kPa, x1 = 0.351 | – | 9.26
333.15 K, 100.9 kPa, x1 = 0.55 | 1.07 | –
333.15 K, 100.9 kPa, x1 = 0.84 | – | 15.7
335.65 K, 100.9 kPa, x1 = 0.168 | – | 3.63
340.65 K, 100.9 kPa, x1 = 0.168 | – | 3.19
343.15 K, 100.9 kPa, x1 = 0.055 | – | 1.052
348.15 K, 100.9 kPa, x1 = 0.353 | 2.81 | –
348.15 K, 100.9 kPa, x1 = 0.55 | 1.68 | –
348.15 K, 100.9 kPa, x1 = 0.714 | 1.3 | –
348.15 K, 100.9 kPa, x1 = 0.838 | 1.11 | –
363.15 K, 100.9 kPa, x1 = 0.168 | 9.08 | –
363.15 K, 100.9 kPa, x1 = 0.945 | 1.27 | –
